Results reported in ChEMBL document CHEMBL1145900, “Histone deacetylase inhibitors” (J Med Chem, 2003).
pIC50: −log10 of the molar value. In brackets after ≈: the same amount, converted by molar mass.

System: Plasmodium falciparum
Assay: Inhibitory concentration against Plasmodium falciparum […]
Format: functional, organism-based
Conditions: not given

Row | Compound | IC50
1 | CC[C@H](C)[C@@H]1NC(=O)[C@H](Cc2cn(OC)c3ccccc23)NC(=O)[C@H](CCCCCC(=O)NO)NC(=O)[C@H]2CCCCN2C1=O | 0.00024 µg/mL (≈ 0.000383 µM)
2 | CC[C@H](C)[C@@H]1NC(=O)[C@H](Cc2cn(OC)c3ccccc23)NC(=O)[C@H](CCCCCC(=O)C(C)F)NC(=O)[C@H]2CCCCN2C1=O (stereo partly specified) | 0.028 µg/mL (≈ 0.0436 µM)
3 | CC[C@H](C)[C@@H]1NC(=O)[C@H](Cc2cn(OC)c3ccccc23)NC(=O)[C@H](CCCCC(=O)OC)NC(=O)[C@H]2CCCCN2C1=O | > 1 µg/mL
4 | CC[C@H](C)[C@@H]1NC(=O)[C@H](Cc2cn(OC)c3ccccc23)NC(=O)[C@H](CCCCCC(=O)OC)NC(=O)[C@H]2CCCCN2C1=O | 0.21 µg/mL (≈ 0.336 µM)
5 | CC[C@H](C)[C@@H]1NC(=O)[C@H](Cc2cn(OC)c3ccccc23)NC(=O)[C@H](CCCCCC(=O)C(C)O)NC(=O)[C@H]2CCCCN2C1=O (stereo partly specified) | 0.022 µg/mL (≈ 0.0344 µM)
6 | CC[C@H](C)[C@@H]1NC(=O)[C@H](Cc2cn(OC)c3ccccc23)NC(=O)[C@H](CCCCCC(=O)O)NC(=O)[C@H]2CCCCN2C1=O | > 1 µg/mL
7 | CCC(=O)C(F)CCCC[C@@H]1NC(=O)[C@H]2CCCCN2C(=O)[C@H]([C@@H](C)CC)NC(=O)[C@H](Cc2cn(OC)c3ccccc23)NC1=O (stereo partly specified) | 0.7 µg/mL (≈ 1.09 µM)
8 | CC[C@H](C)[C@@H]1NC(=O)[C@H](Cc2cn(OC)c3ccccc23)NC(=O)[C@H](CCCCCC(=O)C2CO2)NC(=O)[C@H]2CCCCN2C1=O (stereo partly specified) | < 0.015 µg/mL
9 | CC[C@H](C)[C@@H]1NC(=O)[C@H](Cc2cn(OC)c3ccccc23)NC(=O)[C@H](CCCCCCC(=O)OC)NC(=O)[C@H]2CCCCN2C1=O | 0.5 µg/mL (≈ 0.782 µM)

System: not listed separately
Assay: Inhibition of acetylation of histone-4 in human T-24 cancer cells
Conditions: not given

Row | Compound | EC
10 | Nc1ccccc1NC(=O)/C=C/c1ccc(S(=O)(=O)Nc2ccc(-c3ccccc3)cc2)cc1 | 5 µM
11 | Nc1ccccc1NC(=O)/C=C/c1ccc(NS(=O)(=O)c2ccc(-c3ccccc3)cc2)cc1 | 15 µM

System: MDA-MB-435
Assay: cells
Format: functional, cell-based
Conditions: Homo sapiens
Description: Inhibitory concentration against MDA-435 cells proliferation

Row | Compound | pIC50
12 | CC(C)C[C@H]1C(=O)N2C(=O)[C@@H]1CCCCOc1ccc(cc1)C[C@H]2C(=O)NCCCCCC(=O)NO | 6.82
13 | O=C(CCCCCCNC(=O)C1Cc2ccccc2O1)NO (stereo unspecified) | 6.31
14 | O=C(CCCCCNC(=O)[C@H](Cc1ccccc1)N1C(=O)CCC1=O)NO | 5.00
15 | CC(C)C[C@@H]1CC(=O)N([C@@H](Cc2ccccc2)C(=O)NCCCCCC(=O)NO)C1=O | 6.17
16 | O=C(CCCCCCNC(=O)c1cc2ccccc2[nH]1)NO | 6.82
17 | CCC[C@H]1C(=O)N([C@@H](Cc2ccc(OC)cc2)C(=O)NCCCCCC(=O)NO)C(=O)[C@@H]1CC(C)C | 6.74
18 | CCC[C@H]1C(=O)N([C@@H](Cc2ccccc2)C(=O)NCCCCCC(=O)NO)C(=O)[C@@H]1CC(C)C | 6.24

Target: Histone deacetylase
Assay: not given
Format: protein assay, Homo sapiens
Conditions: not given

Row | Compound | IC50
19 | CN(C)c1ccc(C(=O)c2cc(/C=C/C(=O)NO)n(C)c2)cc1 | 2.4 µM
20 | Cn1cc(C(=O)c2ccc(F)cc2)cc1/C=C/C(=O)NO | 3.8 µM
21 | O=C(/C=C/c1cc(C(=O)c2ccccc2)c[nH]1)NO | 5 µM
22 | Cn1cc(C(=O)c2ccc([N+](=O)[O-])cc2)cc1/C=C/C(=O)NO | 3.9 µM
23 | Cc1ccc(C(=O)c2cc(/C=C/C(=O)NO)n(C)c2)cc1 | 1.9 µM
24 | O=C(NO)c1ccc(CNC(=O)c2ccc(-c3ccccc3)cc2)cc1 | 0.24 µM
25 | CC(C)n1cc(C(=O)c2ccccc2)cc1/C=C/C(=O)NO | 53 µM
26 | O=C(NCC1CCC(C(=O)NO)CC1)c1ccc(-c2ccccc2)cc1 (stereo unspecified) | 0.31 µM
27 | Cn1cc(C(=O)c2ccccc2)cc1/C=C/C(=O)NO | 3.8 µM
28 | Cn1cc(C(=O)/C=C/c2ccccc2)cc1/C=C/C(=O)NO | 1 µM
29 | Cn1cc(C(=O)c2ccccc2)cc1CCC(=O)NO | 36.8 µM
30 | COc1ccc(C(=O)c2cc(/C=C/C(=O)NO)n(C)c2)cc1 | 2.9 µM
31 | O=C(/C=C/c1cc(C(=O)c2ccccc2)cn1-c1ccccc1)NO | 110 µM
32 | Cn1cc(C(=O)c2ccc(Cl)cc2)cc1/C=C/C(=O)NO | 2.4 µM
33 | O=C(NO)c1ccc(CNC(=O)c2ccc3ccccc3c2)cc1 | 0.044 µM
34 | O=C(NO)c1ccc(CNC(=O)c2cccc3ccccc23)cc1 | 0.83 µM

Target: Histone deacetylase
Assay: not given
Format: protein assay, Homo sapiens
Conditions: not given
Remark: another data set of the same source

Row | Compound | IC50
35 | O=C(CCCCCCNC(=O)c1ccccc1)NO | 1.006 µM
36 | O=C(CCCCCCNC(=O)C1Cc2ccccc2O1)NO (stereo unspecified) | 0.0296 µM
37 | O=C(CCCCCCNC(=O)c1ccc2cc[nH]c2c1)NO | 0.0565 µM
38 | O=C(CCCCCCNC(=O)c1cc2cc(Br)ccc2[nH]1)NO | 0.0035 µM
39 | CC1c2ccccc2CC1C(=O)NCCCCCCC(=O)NO (stereo unspecified) | 0.732 µM
40 | O=C(CCCCCCNC(=O)c1cc2cc(F)ccc2[nH]1)NO | 0.0054 µM
41 | O=C(/C=C/CCCCOc1ccc(-c2ccccc2)cc1)C(F)(F)F | 5 µM
42 | O=C(CCCCCCNC(=O)c1cc2ccccc2[nH]1)NO | 0.0146 µM
43 | O=C(CCCCCCNC(=O)c1ccc2[nH]ccc2c1)NO | 0.0314 µM
44 | O=C(CCCCCCNC(=O)c1c[nH]c2ccccc12)NO | 0.0375 µM
45 | COc1cc(OC)c2cc(C(=O)NCCCCCCC(=O)NO)[nH]c2c1 | 0.0031 µM
46 | O=C(CCCCCCNC(=O)c1cccc2[nH]ccc12)NO | 0.0803 µM
47 | O=C(CCCCCCC(=O)C(F)(F)F)Nc1cccc(-c2ccccc2)c1 | 0.38 µM
48 | COc1ccc2oc(C(=O)NCCCCCCC(=O)NO)cc2c1 | 0.015 µM
49 | COc1cccc2[nH]c(C(=O)NCCCCCCC(=O)NO)cc12 | 0.0031 µM
50 | O=C(CCCCCCNC(=O)c1ccc[nH]1)NO | 0.524 µM
51 | O=C(CCCCCCNC(=O)c1cc2cc(Cl)ccc2o1)NO | 0.015 µM
52 | COc1ccc2[nH]c(C(=O)NCCCCCCC(=O)NO)cc2c1 | 0.0065 µM
53 | O=C(CCCCCCNC(=O)c1ccccn1)NO | 1.68 µM
54 | O=C(CCCCCCNC(=O)c1cccc2cc[nH]c12)NO | 0.041 µM

Target: Histone deacetylase
Assay: Inhibitory concentration against human Histone deacetylase in Hela cells
Format: cell-based
Conditions: not given

Row | Compound | IC50
55 | CC[C@H](C)[C@@H]1NC(=O)[C@H](Cc2cn(OC)c3ccccc23)NC(=O)[C@H](CCCCCC(=O)NO)NC(=O)[C@H]2CCCCN2C1=O | 0.0002 µM
56 | CC[C@H](C)[C@@H]1NC(=O)[C@H](Cc2cn(OC)c3ccccc23)NC(=O)[C@H](CCCCCC(=O)C(C)F)NC(=O)[C@H]2CCCCN2C1=O (stereo partly specified) | 0.001 µM
57 | CC[C@H](C)[C@@H]1NC(=O)[C@H](Cc2cn(OC)c3ccccc23)NC(=O)[C@H](CCCCC(=O)OC)NC(=O)[C@H]2CCCCN2C1=O | 0.074 µM
58 | CC[C@H](C)[C@@H]1NC(=O)[C@H](Cc2cn(OC)c3ccccc23)NC(=O)[C@H](CCCCCC(=O)OC)NC(=O)[C@H]2CCCCN2C1=O | 0.0004 µM
59 | CC[C@H](C)[C@@H]1NC(=O)[C@H](Cc2cn(OC)c3ccccc23)NC(=O)[C@H](CCCCCC(=O)C(C)O)NC(=O)[C@H]2CCCCN2C1=O (stereo partly specified) | 0.0003 µM
60 | CC[C@H](C)[C@@H]1NC(=O)[C@H](Cc2cn(OC)c3ccccc23)NC(=O)[C@H](CCCCCC(=O)O)NC(=O)[C@H]2CCCCN2C1=O | 0.015 µM
61 | CCC(=O)C(F)CCCC[C@@H]1NC(=O)[C@H]2CCCCN2C(=O)[C@H]([C@@H](C)CC)NC(=O)[C@H](Cc2cn(OC)c3ccccc23)NC1=O (stereo partly specified) | 0.11 µM
62 | CC[C@H](C)[C@@H]1NC(=O)[C@H](Cc2cn(OC)c3ccccc23)NC(=O)[C@H](CCCCCC(=O)C2CO2)NC(=O)[C@H]2CCCCN2C1=O (stereo partly specified) | < 0.0001 µM
63 | CC[C@H](C)[C@@H]1NC(=O)[C@H](Cc2cn(OC)c3ccccc23)NC(=O)[C@H](CCCCCCC(=O)OC)NC(=O)[C@H]2CCCCN2C1=O | 0.007 µM

Target: Histone deacetylase
Assay: Inhibitory concentration against isolated Histone deacetylase
Format: protein assay, Homo sapiens
Conditions: not given

Row | Compound | IC50
64 | Cn1cc(C(=O)c2ccccc2)cc1/C=C/C(=N)N | 23 µM
65 | O=C(NCCSSCCNC(=O)/C(Cc1ccc(O)c(Br)c1)=N/O)/C(Cc1ccc(O)c(Br)c1)=N/O [PSAMMAPLIN A] | 0.004 µM
66 | Cn1cc(C(=O)Cc2ccccc2)cc1C=C1C(=O)NC(=S)NC1=O | 85 µM
67 | Cn1cc(C(=O)c2ccccc2)cc1/C=C/C#N | 70 µM
68 | O=C(O)C(=O)NCCSSCCNC(=O)/C(Cc1ccc(O)c(Br)c1)=N/O | 0.002 µM
69 | COC(=O)NCCSSCCNC(=O)/C(Cc1ccc(O)c(Br)c1)=N/O [PSAMMAPLIN D] | 0.044 µM
70 | Cn1cc(C(=O)Cc2ccccc2)cc1C=C1C(=O)NC(=O)NC1=O | 104 µM
71 | CCOC(=O)NCCSSCCNC(=O)/C(Cc1ccc(O)c(Br)c1)=N/O | 0.079 µM
72 | NC(=O)C(=O)NCCSSCCNC(=O)/C(Cc1ccc(O)c(Br)c1)=N/O [PSAMMAPLIN E] | 0.33 µM

Target: Histone deacetylase
Assay: not given
Design: species or system Rattus norvegicus
Conditions: not given
Remark: another data set of the same source

Row | Compound | IC50
73 | CC(C)C[C@H]1C(=O)N2C(=O)[C@@H]1CCCCOc1ccc(cc1)C[C@H]2C(=O)NCCCCCC(=O)NO | 0.038 µM
74 | CN(C)c1ccc(C(=O)NCCCCCCC(=O)NO)cc1 | 0.046 µM
75 | O=C(CCCCCN1C(=O)c2ccccc2C1=O)NO | 0.515 µM
76 | CN(C)c1ccc(C(=O)NCCCCCC(=O)NO)cc1 | 0.244 µM
77 | O=C(CCCCCNC(=O)c1ccc(Cl)cc1)NO | 0.369 µM
78 | CN(C)c1ccc(C(=O)NCCCCC(=O)NO)cc1 | > 10 µM
79 | O=C(CCCCCCC(=O)c1ccccc1)NO | 0.27 µM
80 | CC(C)C[C@H]1C(=O)N[C@H](C(=O)NCCCCCC(=O)NO)Cc2ccc(cc2)OCCCC[C@H]1C(=O)OC(C)(C)C | 2.1 µM
81 | O=C(CCCCCNC(=O)c1ccc(-c2ccccc2)cc1)NO | 0.265 µM
82 | CN(C)c1ccc(C(=O)NCCCCCCCC(=O)NO)cc1 | 0.145 µM
83 | O=C(CCCCCNC(=O)c1ccc([N+](=O)[O-])cc1)NO | 1.566 µM

Target: Histone deacetylase (Homo sapiens) (UniProt Q13547+O15379+Q9UBN7+Q92769+Q9UQL6+Q8WUI4+Q9BY41+Q96DB2+P56524+Q9UKV0+Q969S8)
Assay: Percent inhibition against isolated Histone deacetylase at 30 uM
Format: protein assay
Conditions: not given

Row | Compound | inhibition
84 | Cn1cc(C(=O)c2ccccc2)cc1C=C1C(=O)NC(=S)NC1=O | 0%
85 | Cn1cc(C(=O)c2ccccc2)cc1C=C1C(=O)NC(=O)NC1=O | 0%

System: HT-1080
Assay: cells
Format: functional, cell-based
Conditions: Homo sapiens
Description: Inhibitory concentration against HT1080 cells proliferation

Row | Compound | pIC50
86 | CC(C)C[C@H]1C(=O)N2C(=O)[C@@H]1CCCCOc1ccc(cc1)C[C@H]2C(=O)NCCCCCC(=O)NO | 6.60
87 | O=C(CCCCCCNC(=O)C1Cc2ccccc2O1)NO (stereo unspecified) | 6.12
88 | O=C(CCCCCCNC(=O)c1cc2ccccc2[nH]1)NO | 6.85

Target: Histone deacetylase
Assay: not given
Format: protein assay, Homo sapiens
Conditions: not given
Remark: another data set of the same source

Row | Compound | IC50
89 | O=C(CCCCCCN1c2cccc3cccc(c23)S1(=O)=O)NO | 0.01 µM
90 | C[C@H](CCCCC(=O)NO)NC(=O)c1ccc(N(C)C)cc1 | 0.359 µM
91 | C[C@H](/C=C/C=C/C(=O)NO)NC(=O)c1ccc(N(C)C)cc1 | 12.187 µM
